# In patent publication US20230310356A1, “COMPOSITION FOR PREVENTING, AMELIORATING, OR TREATING BRAIN DAMAGE AND MILD COGNITIVE IMPAIRMENT COMPRISING GLUTAMINE AS EFFECTIVE COMPONENT” (INDUSTRY-ACADEMIC COOPERATION FOUNDATION GYEONGSANG …, priority 2020, published 2023):
# Entries after “also recorded” stand apart in the source; their conditions may differ.
# Assays:
# [1] = tested on: C57BL/6 female mouse (NonTg); assay: ORT cognitive ability test in normal control mouse with glutamine diet; type: in vivo; settings: until the 6-months old stage, 150 mg glutamine/kg diet
# Protocol: As an animal model for cognitive ability evaluation, a 7-weeks old 3×TG-AD female mouse (8 mice. model of Alzheimer's disease) and a C57BL/6 female mouse (10 mice, control) were selected. The animals of each type were divided into 2 groups, and each group was provided with regular animal feed (i.e., normal diet, ND) or glutamine feed (Gln). The glutamine diet group was allowed to consume the feed containing 150 mg glutamine/kg diet, from 2-months old stage to the end of test (i.e., 6 to 7-months old stage). Health state of the animal was checked by measuring, once a week, the bodyweight of the animal and food intake (FIG. 7A). Cognitive ability test of the mouse as an animal model established above was determined by ORT (object recognition test). The animal was habituated in a box for 2 days. On Day 3, it was allowed to explore two identical objects for 10 minutes. On Day 4, one of the two objects was replaced with a novel object, and then, the animal was allowed to explore further for 5 minutes (FIG. 7B). The time spent by animal for exploring after approaching within 1 cm from the periphery of both objects was measured. After carrying out the calculation using Formula (3) below, DI (discrimination index) was calculated and compared to each other. In the present invention, a different novel object was employed for carrying out each test. […]
# amyloid beta 42 (Aβ42) = assay: Aβ42 in neuronally derived blood exosome (NDE) by ELISA after glutamine diet; type: in vivo, mouse; settings: female 3×TG-AD, 3×TG+Gln vs 3×TG, after test with 6-months old animals
# Protocol: As an animal model for cognitive ability evaluation, a 7-weeks old 3×TG-AD female mouse (8 mice. model of Alzheimer's disease) and a C57BL/6 female mouse (10 mice, control) were selected. The animals of each type were divided into 2 groups, and each group was provided with regular animal feed (i.e., normal diet, ND) or glutamine feed (Gln). The glutamine diet group was allowed to consume the feed containing 150 mg glutamine/kg diet, from 2-months old stage to the end of test (i.e., 6 to 7-months old stage). Health state of the animal was checked by measuring, once a week, the bodyweight of the animal and food intake (FIG. 7A). After the cognitive ability test with 6-months old animals, the mouse was sacrificed using carbon dioxide and a change in neuronally derived blood exosome (NDE) protein was determined. Total exosomes were separated from serum, and, after a reaction for 1 hour with anti-CD171 antibody, they were reacted for 1 hour with streptavidin-fused magnetic beads. After that, elution was carried out using 0.05 M glycine-HCl (pH 3.0), and then addition of 1 M Tris-HCl (pH 8.0) was made. Analysis was then made by using amyloid beta 42 (Aβ42) mouse ELISA kit.
# [2] = tested on: C57BL/6 male mice applied with chronic immobilization stress; assay: Behavior analysis by ORT and OLT after CIS and glutamine supplementation; type: in vivo, mouse; settings: STR+Gln vs STR; glutamine 150 mg/kg of feed, after 15 days stress
# Protocol: Control (CTL) is a group which received normal diet (common diet with nutritional balance) without any stress, CTL+Gln group is a normal diet group supplemented with glutamine (150 mg/kg of feed) and without any stress, STR is a normal diet group under stress, and STR+Gln group is a normal diet group supplemented with glutamine (150 mg/kg of feed) under stress. The stress group (STR) was individually brought by force to a restrainer for 2 hours every day (i.e., between 2 PM and 4 PM) so that the animals are applied with chronic immobilization stress for 15 days. By using the cohorts of Example 1, behavior analysis was carried out. After applying the stress for 15 days, behavior analysis was immediately carried out. ORT includes three separate sessions, i.e., habituation, familiarization, and test. During 2 days of the habituation, the animals were allowed to stay in an empty open space for 10 minutes a day. After the habituation, they were subjected to familiarization by placing two identical objects in the open space. Mice of each test group were allowed to explore freely the object for 10 minutes. […] Discrimination index (DI) in ORT was then calculated according to the following formula (1). […] Discrimination index (DI) in OLT was then calculated according to the following formula (2). […]
# [3] = tested on: stratum pyramidale CA1 in hippocampus; assay: Morphological change in hippocampus (Nissl staining, width of stratum pyramidale CA1) after CIS and glutamine supplementation; type: in vivo, mouse; settings: STR+Gln vs STR; glutamine 150 mg/kg of feed
# Protocol: Control (CTL) is a group which received normal diet (common diet with nutritional balance) without any stress, CTL+Gln group is a normal diet group supplemented with glutamine (150 mg/kg of feed) and without any stress, STR is a normal diet group under stress, and STR+Gln group is a normal diet group supplemented with glutamine (150 mg/kg of feed) under stress. The stress group (STR) was individually brought by force to a restrainer for 2 hours every day (i.e., between 2 PM and 4 PM) so that the animals are applied with chronic immobilization stress for 15 days. Any morphological change in hippocampus caused by the application of chronic immobilization stress and glutamine supplementation was determined by brain tissue staining of hippocampal region. Specifically, a section (i.e., brain tissue specimen) obtained after mounting for 5 minutes in 0.1% cresyl violet which has been dissolved in 0.2% acetic acid followed by air-drying was stained. Stained section was washed, subsequently immersed for 30 seconds in 80% (v/v) ethanol, again immersed for 30 seconds in 90% (v/v) ethanol, and again immersed twice for 30 seconds in 95% (v/v) ethanol. It was again immersed twice for 30 seconds in 100% (v/v) ethanol for dehydration. […]
smiles,measurement,setting,value
NC(=O)CC[C@H](N)C(=O)O [glutamine],cognitive ability (ORT) change caused by glutamine diet,[1],no change
same,Aβ42 in NDE (neuronally derived blood exosome),amyloid beta 42 (Aβ42),statistically significant decrease; also recorded: suppressed
same,discrimination index (DI) in OLT,[2],higher DI
same,discrimination index (DI) in ORT,[2],higher DI
same,width of CA1-SP (stratum pyramidale CA1),[3],restored
